Patent US5053070A, “Pyrimidine derivatives, preparation processes thereof, herbicide containing the same, and herbicidal compositions containing the same along with other active ingredient” (Mitsui Toatsu Chemicals, Incorporated, priority 1988, dated 1991)
≈ marks a conversion by molar mass, not a printed value.

Assays:
[1] = system: ALS (acetolactate syntase); assay: ALS enzyme assay (Test 1); type: biochemical, pea; settings: 1,000 ppm (0.5 mg/0.5 ml)
How it was run: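 Partially purified ALS from dark-grown pea and barnyardgrass seedlings incubated 1 h at 30° C with pyruvate, TPP, MgCl2 and FAD. Compounds tested at 1,000 ppm (0.5 mg/0.5 ml). Acetoin formed detected colorimetrically at 525 nm via creatine/α-naphthol, relative to blank and acid-stopped controls.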

narrowleaf waterplantain = assay: Petri dish test (Test 6); type: in vivo; settings: 336 h; seeds on filter paper, 25° C., 14 days; read-out: I80 (ppm)
How it was run: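 Narrowleaf waterplantain seeds placed on filter paper pre-treated with compound in acetone (solvent air-dried) in 9 cm Petri dishes with 10 ml water, grown at 25° C in light. Growth was scored after fourteen days as degree of damage against an untreated group.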

soybean = assay: Upland foliar application test (Test 3), crop injury; type: in vivo; settings: 30 g ai/a, foliar spray at 2-3 leaves, 30th day
How it was run: (§1)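 Upland-soil pots seeded with weeds and crops (incl. cotton, large crabgrass, johnsongrass, common lambsquarters), grown in greenhouse to 2-3 leaf stage. Emulsion diluted with water sprayed on foliage at 5 l per are via ULV sprayer. Weed damage and crop injury scored 30 days after spraying.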

cotton = assay: as above; type: in vivo; settings: 30 g ai/a, foliar spray at 2-3 leaves, 30th day
How it was run: as §1

peanut = assay: as above; type: in vivo; settings: 30 g ai/a, foliar spray at 2-3 leaves, 30th day
How it was run: as §1

rice [2] = assay: Treatment of soil under submerged condition, post-emergence (Test 5), injury; type: in vivo; settings: 30 g ai/a granule, 30 days later
How it was run: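 Post-emergence paddy test: granules of a predetermined amount of test composition go onto flooded pots when barnyardgrass has two leaves. Transplanted rice seedlings (2–3 leaf stage) share the pots with sown weeds. Damage and crop injury are rated at 30 days.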

green foxtail = assay: Upland foliar application test (Test 3); type: in vivo; settings: 30 g ai/a, foliar spray at 2-3 leaves, 30th day
How it was run: as §1

foxtail meadow = assay: Upland foliar application test (Test 3); type: in vivo; settings: 30 g ai/a, foliar spray at 2-3 leaves, 30th day
How it was run: as §1

common lambsquarters = assay: Upland foliar application test (Test 3); type: in vivo; settings: 30 g ai/a, foliar spray at 2-3 leaves, 30th day
How it was run: as §1

large crabgrass = assay: Upland foliar application test (Test 3); type: in vivo; settings: 30 g ai/a, foliar spray at 2-3 leaves, 30th day
How it was run: as §1

johnsongrass = assay: Upland foliar application test (Test 3); type: in vivo; settings: 30 g ai/a, foliar spray at 2-3 leaves, 30th day
How it was run: as §1

redroot pigweed = assay: Upland foliar application test (Test 3); type: in vivo; settings: 30 g ai/a, foliar spray at 2-3 leaves, 30th day
How it was run: as §1

barnyardgrass = assay: Upland foliar application test (Test 3); type: in vivo; settings: 30 g ai/a, foliar spray at 2-3 leaves, 30th day
How it was run: as §1

rice [3] = assay: Treatment of soil under submerged condition, pre-emergence (Test 4), injury; type: in vivo; settings: 30 g ai/a granule, 30 days later
How it was run: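 Weeds were seeded or planted in submerged soil, with 2-3 leaf rice seedlings transplanted into the same pots. One day later, before weed emergence, a granule formulation of the test composition was applied. Weed damage and rice injury were scored 30 days after treatment.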

Inhibitory activity (%) Pea [1] [%]	Structure (SMILES)	IC80 (narrowleaf waterplantain) [µg/mL]	Injury Soybean (soybean)	Injury Cotton (cotton)	Injury Peanut (peanut)	Injury Rice (rice [2])	Herbicidal effects Green foxtail (green foxtail)	Herbicidal effects Foxtail meadow (foxtail meadow)	Herbicidal effects Common lambsquarters (common lambsquarters)	Herbicidal effects Large crabgrass (large crabgrass)	Herbicidal effects Johnsongrass (johnsongrass)	Herbicidal effects Redroot pigweed (redroot pigweed)	Herbicidal effects Barnyardgrass (barnyardgrass)	Injury Rice (rice [3])
0	COc1cc(OC)nc(Oc2ccccc2C=NOCC=Cc2cccc(Cl)c2Cl)n1 [compound 41]	2 (≈ 4.34 µM)	0 (91-100 (No damages))	0 (91-100 (No damages))	0 (91-100 (No damages))	0 (91-100 (No damages))	4 (6-10 (Severe damages))	4 (6-10 (Severe damages))	4 (6-10 (Severe damages))	5 (0-5 (Death))	5 (0-5 (Death))	5 (0-5 (Death))	5 (0-5 (Death))	0 (91-100 (No damages))
0	COc1cc(OC)nc(Oc2ccccc2C=NOCc2ccc(C)cc2)n1 [compound 19]	100 (≈ 264 µM)	0 (91-100 (No damages))	0 (91-100 (No damages))	0 (91-100 (No damages))	0 (91-100 (No damages))	5 (0-5 (Death))	4 (6-10 (Severe damages))	4 (6-10 (Severe damages))	3 (11-40 (Medium damages))	5 (0-5 (Death))	4 (6-10 (Severe damages))	3 (11-40 (Medium damages))	0 (91-100 (No damages))
0	COc1cc(OC)nc(Oc2ccccc2C=NOCC=Cc2ccc(Cl)c(Cl)c2)n1 [compound 31]	2 (≈ 4.34 µM)	0 (91-100 (No damages))	0 (91-100 (No damages))	0 (91-100 (No damages))	0 (91-100 (No damages))	4 (6-10 (Severe damages))	4 (6-10 (Severe damages))	4 (6-10 (Severe damages))	4 (6-10 (Severe damages))	5 (0-5 (Death))	3 (11-40 (Medium damages))	4 (6-10 (Severe damages))	0 (91-100 (No damages))
0	C=C(C)CON=Cc1ccccc1Oc1nc(OC)cc(OC)n1 [compound 5]	17 (≈ 51.6 µM)	0 (91-100 (No damages))	0 (91-100 (No damages))	0 (91-100 (No damages))	0 (91-100 (No damages))	5 (0-5 (Death))	5 (0-5 (Death))	4 (6-10 (Severe damages))	5 (0-5 (Death))	5 (0-5 (Death))	4 (6-10 (Severe damages))	5 (0-5 (Death))	0 (91-100 (No damages))
92	COc1cc(OC)nc(Oc2ccccc2C=O)n1 [B, reference compound]	1 (≈ 3.84 µM)	5 (0-5 (Death))	5 (0-5 (Death))	5 (0-5 (Death))	5 (0-5 (Death))	4 (6-10 (Severe damages))	4 (6-10 (Severe damages))	3 (11-40 (Medium damages))	4 (6-10 (Severe damages))	4 (6-10 (Severe damages))	3 (11-40 (Medium damages))	4 (6-10 (Severe damages))	5 (0-5 (Death))
8	COc1cc(OC)nc(Oc2ccccc2C=NOCC=Cc2ccc(Cl)cc2)n1 [Compound No. 28]	2 (≈ 4.7 µM)	0 (91-100 (No damages))	0 (91-100 (No damages))	0 (91-100 (No damages))	0 (91-100 (No damages))	4 (6-10 (Severe damages))	5 (0-5 (Death))	4 (6-10 (Severe damages))	4 (6-10 (Severe damages))	5 (0-5 (Death))	4 (6-10 (Severe damages))	5 (0-5 (Death))	0 (91-100 (No damages))
0	COc1cc(OC)nc(Oc2ccccc2C=NOCC=C(C)Cl)n1 [compound 12]	100 (≈ 275 µM)	0 (91-100 (No damages))	0 (91-100 (No damages))	0 (91-100 (No damages))	0 (91-100 (No damages))	4 (6-10 (Severe damages))	4 (6-10 (Severe damages))	3 (11-40 (Medium damages))	4 (6-10 (Severe damages))	5 (0-5 (Death))	3 (11-40 (Medium damages))	4 (6-10 (Severe damages))	1 (71-90 (Slight damages))
6	COc1cc(OC)nc(Oc2ccccc2C=NOCC=Cc2ccc(Cl)cc2Cl)n1 [compound 30]	2 (≈ 4.34 µM)	0 (91-100 (No damages))	0 (91-100 (No damages))	0 (91-100 (No damages))	0 (91-100 (No damages))	5 (0-5 (Death))	5 (0-5 (Death))	4 (6-10 (Severe damages))	5 (0-5 (Death))	5 (0-5 (Death))	5 (0-5 (Death))	5 (0-5 (Death))	0 (91-100 (No damages))
8	COc1cc(OC)nc(Oc2ccccc2C=NOCC=Cc2cccc(Cl)c2)n1 [Compound No. 26, 0-(3-chlorocinnamyl)-2-(4,6-dimethoxy-2-pyrimidinyloxy)benzaldxime]	2 (≈ 4.7 µM)	0 (91-100 (No damages))	0 (91-100 (No damages))	0 (91-100 (No damages))	0 (91-100 (No damages))	5 (0-5 (Death))	4 (6-10 (Severe damages))	4 (6-10 (Severe damages))	5 (0-5 (Death))	5 (0-5 (Death))	4 (6-10 (Severe damages))	5 (0-5 (Death))	0 (91-100 (No damages))
0	COc1cc(OC)nc(Oc2ccccc2C=NOCC=Cc2ccccc2C(F)(F)F)n1 [compound 32]	4 (≈ 8.71 µM)	0 (91-100 (No damages))	0 (91-100 (No damages))	0 (91-100 (No damages))	1 (71-90 (Slight damages))	5 (0-5 (Death))	5 (0-5 (Death))	4 (6-10 (Severe damages))	5 (0-5 (Death))	5 (0-5 (Death))	5 (0-5 (Death))	5 (0-5 (Death))	0 (91-100 (No damages))
0	CCCC=CCON=Cc1ccccc1Oc1nc(OC)cc(OC)n1 [compound 25]	17 (≈ 47.6 µM)	0 (91-100 (No damages))	0 (91-100 (No damages))	0 (91-100 (No damages))	1 (71-90 (Slight damages))	5 (0-5 (Death))	5 (0-5 (Death))	4 (6-10 (Severe damages))	5 (0-5 (Death))	5 (0-5 (Death))	4 (6-10 (Severe damages))	4 (6-10 (Severe damages))	1 (71-90 (Slight damages))
